Test results as given in patent US8389549B2, “Substituted pyridines useful for treating pain” (Purdue Pharma L.P., priority 2007, dated 2013).
≈ marks a conversion by molar mass, not a printed value. Like-named read-outs stand apart in the source and are kept apart here.

Legend:
[1] = Solubility of diol compounds in aqueous solution; type: physicochemical
human TRPV1 [2] = biological target: T1, human TRPV1 (Homo sapiens, UniProt Q8NER1); assay: Capsaicin-based assay (Fluo-4 calcium fluorescence, TRPV1/CHO cells); type: cell-based; design: expressed in transfected cells
Description: One day prior to assay, TRPV1/CHO cells are seeded in 96-well clear-bottom black plates (20,000 cells/well) in growth media. On the day of the experiment, the cells are washed with 0.2 ml 1× Hank's Balanced Salt Solution (Life Technologies) containing 1.6 mM CaCl2 and 20 mM HEPES, pH 7.4 (“wash buffer”). Subsequently, the cells are loaded by incubation in 0.1 ml of wash buffer containing Fluo-4 at 3 µM final concentration. After 1 hour, the cells are washed twice with 0.2 ml wash buffer and resuspended in 0.1 ml wash buffer. The plates are then transferred to a Fluorescence Imaging Plate Reader (Molecular Devices). Fluorescence intensity is monitored for 15 seconds to establish a baseline. Subsequently, test compounds diluted in assay buffer (1× Hank's Balanced Salt Solution containing 1 mM CaCl2 and 20 mM HEPES, pH 7.4) containing 1% DMSO are added to the cell plate and fluorescence is monitored for 2 minutes. […] Human TRPV1 is then activated by the addition of 50 μL capsaicin (100 nM final concentration) and plates incubated for an additional 3 min. Data are collected over the entire time course and analyzed using Excel and the curve-fitting Formula GraphPad Prism.

human TRPV1 [3] = biological target: T1, human TRPV1; assay: pH-based assay (Fura-2 AM Ca2+ response to low pH, TRPV1/CHO cells)
Description: For this Protocol, a Chinese Hamster Ovary cell line (CHO) that constitutively expresses human TRPV1 is used (TRPV1/CHO cells).
TRPV1/CHO cells are seeded in the 96-well clear-bottom black-wall plate (Nunc) at densities of 1-2×10^4 cells/well and grown in 100 μL of culture medium (alpha-MEM supplemented with 10% FBS, 20 mM HEPES, 1 mg/mL geneticin and 1% antibiotic-antimycotic mixed stock solution) for 1-2 days before the experiment.
(2) The 96-well plate is incubated at 37° C. for 45 min.
(3) The loading buffer is removed from each well. […] The wells are then refilled with 80 μL of measuring buffer.
(4) After an incubation at 4° C. for 15 min, the 96-well plate is transferred to FDSS-3000 (Hamamatsu photonics, Japan).
(5) The Fura-2 fluorescent intensity is monitored at a wavelength of 340 nm and at 380 nm, respectively, at a rate of 0.5 Hz for a total of 240 seconds. After 16 time points (32 sec) of baseline detection, 20 μL of agonist solution is added to each well. […]
(6) Fluorescence intensity ratio refers to the fluorescence intensity at 340 nm over the fluorescence intensity at 380 nm at a particular time point. […]
(7) Maximal signal ratios from each well are calculated as output data using the FDSS-3000 analysis program. Data are analyzed using Excel (Microsoft) and XLfit (idbs) software. […]
(6) Fura-2 fluorescent intensity is monitored as described in 2.2.(5) of this Protocol. […]

[4] = pH 1.2, read-out: Solubility (μM) pH: 1.2
[5] = pH 6.8, aqueous buffer, read-out: Solubility (μM) pH: 6.8
[6] = TRPV1/CHO cells, capsaicin 100 nM final concentration, read-out: Potency, IC50(nM) Capsaicin assay

T1 sequence (Q8NER1 whole entry): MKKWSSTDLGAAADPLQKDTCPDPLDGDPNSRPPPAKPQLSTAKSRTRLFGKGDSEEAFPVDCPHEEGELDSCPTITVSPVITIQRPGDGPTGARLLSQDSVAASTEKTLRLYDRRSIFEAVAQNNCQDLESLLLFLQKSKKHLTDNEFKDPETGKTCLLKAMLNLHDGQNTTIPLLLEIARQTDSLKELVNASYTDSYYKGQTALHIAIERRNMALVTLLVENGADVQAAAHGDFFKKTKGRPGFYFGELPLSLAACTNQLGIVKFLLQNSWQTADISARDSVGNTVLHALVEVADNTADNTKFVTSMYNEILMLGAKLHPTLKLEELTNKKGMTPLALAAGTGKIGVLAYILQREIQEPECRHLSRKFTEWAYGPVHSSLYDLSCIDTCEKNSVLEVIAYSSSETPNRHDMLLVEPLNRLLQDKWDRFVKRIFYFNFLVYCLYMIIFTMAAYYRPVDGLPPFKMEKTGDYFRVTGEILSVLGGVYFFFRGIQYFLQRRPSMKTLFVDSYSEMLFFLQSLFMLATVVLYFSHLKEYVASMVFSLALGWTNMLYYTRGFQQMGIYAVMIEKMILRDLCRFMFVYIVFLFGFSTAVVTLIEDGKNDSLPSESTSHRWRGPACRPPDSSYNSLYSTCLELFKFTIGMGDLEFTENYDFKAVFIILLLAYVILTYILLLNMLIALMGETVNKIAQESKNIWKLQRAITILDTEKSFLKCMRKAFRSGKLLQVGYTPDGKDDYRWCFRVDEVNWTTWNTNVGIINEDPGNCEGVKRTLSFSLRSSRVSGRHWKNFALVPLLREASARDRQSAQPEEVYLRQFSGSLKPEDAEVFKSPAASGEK

Structure (SMILES) | solubility [1, 4] [µM] | solubility [1, 5] [µM] | IC50 (human TRPV1 [2]) [nM] | IC50 (human TRPV1 [3]) [nM] | IC50 (human TRPV1 [2]; [6]) [nM]
O=C(Nc1ccc(C(F)(F)F)cc1)C1=CCN(c2ncc([C@H](O)CO)cc2F)CC1 [Compound A14] | > 50 | 19 (≈ 8.08 µg/mL) | 23.8 ± 6.2 | 9.5 ± 2.5 | –
O=C(Nc1ccc(C(F)(F)F)cc1)C1=CCN(c2ncc([C@@H](O)CO)cc2F)CC1 [Compound B14] | – | – | 29.4 ± 6.3 | 14.7 ± 1.01 | –
O=C(Nc1ccc(C(F)(F)F)cn1)C1=CCN(c2ncc([C@H](O)CO)cc2F)CC1 [Compound E2] | > 50 | 25 (≈ 10.7 µg/mL) | – | – | 45.9 ± 4.2
O=C(Nc1ccc(C(F)(F)F)cn1)C1=CCN(c2ncc([C@@H](O)CO)cc2F)CC1 [Compound F2] | > 50 | 21 (≈ 8.95 µg/mL) | – | – | 109 ± 25.5
O=C(Nc1nc2ccc(F)cc2s1)C1=CCN(c2ncc([C@H](O)CO)cc2F)CC1 [Compound I5, (S)-1-(5-(1,2-dihydroxyethyl)-3-fluoropyridin-2-yl)-N-(6-fluorobenzo[d]thiazol-2-yl)-1,2,3,6-tetrahydropyridine-4-carboxamide] | 46 (≈ 19.9 µg/mL) | 1 (≈ 0.432 µg/mL) | – | – | 35.6 ± 5.1
